Experimental findings from patent publication US20250302746A1, “METHOD FOR PRODUCING EMULSIFIED COMPOSITION” (Daicel Corporation, priority 2022, published 2025) are described below.

This series in a line: Test Example 4: transmittance of emulsified composition (660 nm, optical path 10 mm). In kind it is physicochemical. The settings on record: balance glycerol, heated 120° C. 3 min, 15000 rpm. As for the experimental part: The transmittance of the emulsified composition produced in this example was determined as a transmittance for light having a wave length of 660 nm at a measurement optical path length of 10 mm using an ultraviolet-visible spectrophotometer UV-1800 (manufactured by Shimadzu Corporation). In the following test, a case where the transmittance was less than 40% was indicated by “C”, a case where the transmittance was 40% or greater and less than 80% was indicated by “B”, and a case where the transmittance was 80% or greater was indicated by “A”.
A solution having a composition of parts by weight shown in Table 4 (a solution in which the balance is glycerol and the total is 100 parts by weight) was prepared and heated at 120° C. for 3 minutes using a block heater. During being heated, the solution was mixed using a polytron homogenizer at 15000 rpm. Thereafter, the solution was allowed to stand at room temperature (about 25° C.) and the temperature of the solution was lowered to room temperature (about 25° C.) to produce an emulsified composition, and the transmittance was measured.

Setting [1] is: urolithin 0.1, RYOTO polyglyester L-7D (HLB 17.0) 50 parts by weight.
The mark [2] stands for this setting: urolithin 0.5, RYOTO polyglyester L-7D (HLB 17.0) 50 parts by weight.

`O=c1oc2cc(O)ccc2c2cc(O)c(O)cc12` [Urolithin C, urolithin C]: the Transmittance results under setting [1] was “A (the transmittance was 80% or greater)”.

For `O=c1oc2c(O)c(O)ccc2c2c(O)c(O)c(O)cc12` [Urolithin M5, urolithin M5], under setting [1], the Transmittance results is on record as “A (the transmittance was 80% or greater)”.

Take `O=c1oc2cc(O)ccc2c2c(O)cc(O)cc12` [Urolithin M7, urolithin M7]: the Transmittance results under setting [1] is “A (the transmittance was 80% or greater)”.

As to `O=c1oc2cc(O)ccc2c2ccccc12` [Urolithin B, urolithin B], the Transmittance results (urolithin 1.0, RYOTO polyglyester L-7D (HLB 17.0) 50 parts by weight) is given as “A (the transmittance was 80% or greater)”.

Regarding `O=c1oc2cc(O)ccc2c2cc(O)ccc12` [Isourolithin A, isourolithin A], the Transmittance results under setting [2] was “B (the transmittance was 40% or greater and less than 80%)”.

urolithin M8: the Transmittance results under setting [2] was “A (the transmittance was 80% or greater)”.

For `O=c1oc2cc(O)ccc2c2c(O)c(O)c(O)cc12` [Urolithin M6, urolithin M6], the Transmittance results under setting [2] is “A (the transmittance was 80% or greater)”.
